Experimental data from patent US5212165A, “Method for rehabilitating the vasorelaxant action of the coronary arteries impaired through atherosclerosis or hypercholesterolemia employing an ACE inhibitor” (E. R. Squibb & Sons, Inc., priority 1989, dated 1993).

What was measured:
guinea pig or rat lungs = conditions: guinea pig lungs; cited from earlier work
[1] = system: voltage-dependent calcium channels (iliac rings); assay: Relaxation responses to nifedipine of CaCl2-contracted iliac rings from cynomolgus monkeys; design: species or system cynomolgus (Macaca fascicularis) monkeys; conditions: cholesterol-fed monkeys, with captopril
Excerpt: (§1) Twenty-four male cynomolgus (Macaca fascicularis) monkeys were divided into four groups of six animals each. During the course of the study, one of the control monkeys was sacrificed due to ill health unrelated to the study. Each group was fed a different diet for six months. The control group ate a normal diet of monkey biscuit. The cholesterol group ate a specially formulated monkey diet containing cholesterol. The cholesterol +low captopril group ate the cholesterol diet supplemented with captopril (50 mg/kg divided into two daily doses). The cholesterol+high captopril group ate the cholesterol diet and a higher total dose of captopril (100 mg/kg divided into two daily doses).
(§2) The monkeys were sedated with an intramuscular injection of ketamine (10 mg/kg), then anesthetized with pentobarbital (25 mg/kg). The iliac arteries were carefully dissected, cleaned of surrounding connective tissue, and refrigerated overnight for use the following day.
(§3) On the day of the experiment, three iliac rings (3 mm wide) from each animal were cut and mounted for isometric force recording. Each ring was attached to a micrometer for the control of muscle length and to a Grass FT.03 force transducer and Grass 7D recorder. The rings were placed in warm (37° C.), oxygenated, physiological salt solution (PSS) of the following composition (in mM): 140.0 NaCl, 4.7 KCl, 1.2 MgSO4, 1.6 CaCl2, 1.2 NaH2 PO4, 5.6 D-glucose, 2.0 2-(N-morpholino)propanesulfonic acid (MOPS, pH 7.4 at 37° C.), and 0.02 Na2 -ethylenediaminetetraacetic acid (EDTA). The rings were stretched to a preload of 5 g during a 2 hour equilibration period, then stimulated with 1 μM phenylephrine to test for viability and relaxed with 100 nM acetylcholine to test for endothelial function. Stock solutions of phenylphrine, acetylcholine, propranolol, and sodium nitroprusside were prepared daily in water; nifedipine stock solutions were prepared daily in ethanol.
(§4) The voltage-dependent calcium channels were studied in one ring from each monkey. The protocol consisted of depleting the cells of calcium by exposing the rings to a Ca-free, EGTA (ethylene glycol-bis(β-aminoethyl ether)N,N,N',N'-tetraacetic acid) PSS (omission of CaCl2 and addition of 0.1 mM EGTA) for 30 minutes. The EGTA was subsequently removed from the tissues with three washes of Ca-free PSS (simple omission of CaCl2). Following that, the rings were bathed in Ca-free, K^+ PSS (omission of CaCl2 and isoosmotic substitution of KCl for NaCl such that the KCl concentration was 110 mM) for 30 minutes. A CaCl2 concentration-response curve was obtained by replacing the bath solution with K^+ PSS containing incremental increases in CaCl2 concentration (0.1, 0.3, 0.5, 1.0, 1.25, 1.6, and 2.5 mM). The maximal contractions, in response to 2.5 mM CaCl2, were then relaxed incrementally with nifedipine. Another iliac ring (fade control) from each monkey was subjected to the same protocol with the exception that the strips were allowed to remain contracted and the nifedipine concentration-response curve was not obtained. Some fade of the CaCl2 -induced force was observed over the time period required for the nifedipine concentration-response curve. This fade was accounted for by decreasing the amount of relaxation observed upon addition of nifedipine by the amount of fade observed in the time control from the same monkey.
Data are presented as mean±SEM. The IC50 and EC50 values were estimated by linearly interpolating from the concentration-response curves. […]

[2] = system: bovine aortic endothelial cells; conditions: cited from earlier work
[3] = system: vascular relaxation in response to EN-D (ACh) and EN-I (Na nitroprusside) agonists; conditions: oral; rats; cited from earlier work
[4] = system: alpha-adrenoceptor (isolated iliac arteries); assay: Contractile responses to phenylephrine of isolated iliac arteries from cynomolgus monkeys; design: species or system cynomolgus (Macaca fascicularis) monkeys
Excerpt: as §1, §2, §3
Alpha-adrenoceptor and endothelial cell function were examined in the third ring from each monkey. In the presence of 0.1 μM propranolol, a cumulative concentration-response curve to phenylephrine was obtained, then the phenylephrine was washed out of the baths and the rings were allowed to relax completely. The rings were subsequently contracted with an EC50 concentration of phenylephrine (1 μM) and, following stabilization of the contraction, the rings were treated with increasing concentrations of acetylcholine, followed by 100 nM sodium nitroprusside.
(§5) Data are presented as mean±SEM. The IC50 and EC50 values were estimated by linearly interpolating from the concentration-response curves. The EC50 values for each ring were used to determine the means for each treatment group.
Phenylephrine concentration-response curves were obtained in iliac rings from all groups of monkeys.

[5] = system: K^+ depolarized arteries (iliac rings); assay: Contractile responses to CaCl2 in K^+ depolarized iliac rings from cynomolgus monkeys; design: species or system cynomolgus (Macaca fascicularis) monkeys
Excerpt: as §1, §2, §3, §4, §5
Concentration-response curves to CaCl2 in K^+ depolarized rings were obtained following depletion of tissue calcium by repeated washing in Ca-free PSS first with, then without, EGTA. There were no differences in the responses to CaCl2 among any of the treatment groups (Table 1).

[6] = system: patients with Raynaud's phenomenon; conditions: cited from earlier work
isolated rat hearts = conditions: van Gilst et al; cited from earlier work
[7] = Cholesterol + High Captopril (100 mg/kg daily, six months), Mean ± SEM
[8] = Cholesterol + Low Captopril (50 mg/kg daily, six months), Mean ± SEM
[9] = cholesterol-fed monkeys, with captopril

C[C@H](CS)C(=O)N1CCC[C@H]1C(=O)O [captopril, 1-[(2S)-3-mercapto-2-methylpropionyl]-L-proline]
effect on removal of endothelin by guinea pig lungs (guinea pig or rat lungs): without being affected by captopril | effect on in vitro response of iliac arteries to nifedipine [1]: neither cholesterol nor captopril affected | release of prostacyclin or EDRF induced by bradykinin ([2]; captopril 10 mu.K (so in the source)): did not affect the release | release of EDRF (direct) [2]: ineffective as releasers of EDRF | vascular relaxations in response to EN-D (ACh) and EN-I (Na nitroprusside) agonists [3]: differentially affected vascular relaxations | Max Force (phenylephrine-induced contraction) [4, 7]: 19.2 ± 2.2 g | Max Force (phenylephrine-induced contraction) [4, 8]: 18.4 ± 2.8 g | EC50 at 100 mg/kg ([4]; Macaca fascicularis, Cholesterol + High Captopril (100 mg/kg daily, six months), Mean ± SEM, read-out: EC50 (phenylephrine-induced contraction)): 1.3 ± 0.6 µM | EC50 at 50 mg/kg ([4]; Macaca fascicularis, Cholesterol + Low Captopril (50 mg/kg daily, six months), Mean ± SEM, read-out: EC50 (phenylephrine-induced contraction)): 1 ± 0.2 µM | effect on in vitro response of iliac arteries to phenylephrine [4, 9]: neither cholesterol nor captopril affected | Max Force (CaCl2) [5, 7]: 16.8 ± 1.1 g | Max Force (CaCl2) [5, 8]: 16.5 ± 1.8 g | EC50 at 100 mg/kg ([5]; Macaca fascicularis, Cholesterol + High Captopril (100 mg/kg daily, six months), Mean ± SEM): 150 ± 30 µM | EC50 at 50 mg/kg ([5]; Macaca fascicularis, Cholesterol + Low Captopril (50 mg/kg daily, six months), Mean ± SEM): 140 ± 40 µM | effect on in vitro response of iliac arteries to CaCl2 [5, 9]: neither cholesterol nor captopril affected | marked subjective improvement ([6]; 20 patients with primary or secondary Raynaud's phenomenon, Trubestein et al): 14 cases | incidence or severity of peripheral vasospasm ([6]; Raynaud's with hypertension secondary to scleroderma, Coffman): does not decrease the incidence or severity of peripheral vasospasm | digital circulation ([6]; one patient, Miyazaki et al): improved a patient's digital circulation | benefit in Raynaud's phenomenon and chronic leg ulceration ([6]; one patient, Rustin et al 1989): no benefit | cutaneous blood flow ([6]; p.o., 15 patients, placebo-controlled, double-blind cross-over, Rustin et al 1987): significantly improved cutaneous blood flow | frequency or severity of attacks ([6]; p.o., 15 patients, Rustin et al 1987): no effect on frequency or severity of attacks | frequency and severity of ischemic attacks ([6]; patients with Raynaud's disease, Tosi et al): significantly decreased the frequency and the severity of ischemic attacks | ischemic attacks in patients with scleroderma ([6]; patients with scleroderma, Tosi et al): did not affect the attacks | coronary vasodilatory mechanism (isolated rat hearts): potentiates the effect of locally increased BK
